Results published in publication PMC6522510 (Nature Communications, 2019).
Like-named read-outs stand apart in the source and are kept apart here. Values belong to the compound of their own block, whether it stands above or below them.

What was measured:
[1] = tested on: CHRF288-11; type: cell-based; settings: Homo sapiens, 72 h
[2] = tested on: CMS; type: cell-based; settings: Homo sapiens, 72 h, read-out: IC50 CMS
[3] = tested on: CHRF288-11-luciferase/YFP+ xenograft; assay: In vivo efficacy, survival; parameters: species or system NSG mice; settings: CHRF288-11 xenograft, 60 mg kg−1 twice daily for 5 days up to 4 weeks, oral gavage
[4] = tested on: AMKL patient-derived xenograft; assay: In vivo efficacy, survival; parameters: species or system NSG-SGM3 mice; settings: AMKL PDX, 60 mg kg−1 twice daily for 5 days up to 4 weeks, oral gavage
[5] = Pharmacokinetics of ruxolitinib, single oral dose, plasma LC-MS/MS; type: in vivo, mice; settings: mouse, 60 mg kg−1 oral gavage
Experimental: Data are mean ± standard error (SE) (N = 5 per gender). Concentration-time data were analyzed by non-compartmental analysis and pharmacokinetic parameters were calculated in WinNonLin. c–e, top Kaplan–Meier analysis of animal survival in c CHRF288–11-luciferase/YFP+ xenograft, d CBFA2T3-GLIS2/JAK2V617F-induced AMKL quaternary transplants, and e AMKL patient-derived xenograft.
Animal studies were performed under protocols approved by the Institutional Animal Care and Use Committee at OSU. […] Serial blood collection was performed from 15 min up to 240 min after dose administration.

[6] = tested on: CBFA2T3-GLIS2/JAK2V617F tertiary transplant leukemic blasts; type: cell-based, mouse
[7] = tested on: WSU; assay: cells; settings: Homo sapiens, 72 h, read-out: IC50 (WSU)
[8] = tested on: M-MOK; assay: cells
[9] = tested on: CMY; assay: cells
[10] = tested on: CMK; assay: cells
[11] = tested on: M07e; assay: cells
[12] = tested on: MKPL; assay: cells
[13] = tested on: Meg-01; assay: cells
[14] = tested on: CHRF288-11; assay: Primary HTS, single concentration, Cell Titer Glo; type: cell-based, human; settings: approximately 10 µM, 72 h, relative to positive control
[15] = tested on: CMK; assay: Primary HTS, single concentration, Cell Titer Glo; type: cell-based, human; settings: approximately 10 µM, 72 h, relative to positive control
[16] = tested on: CMS; assay: Primary HTS, single concentration, Cell Titer Glo; type: cell-based, human; settings: approximately 10 µM, 72 h, relative to positive control
[17] = tested on: M07e; assay: Primary HTS, single concentration, Cell Titer Glo; type: cell-based, human; settings: approximately 10 µM, 72 h, relative to positive control
[18] = tested on: ML-2; assay: Primary HTS, single concentration, Cell Titer Glo; type: cell-based, human; settings: approximately 10 µM, 72 h, relative to positive control
[19] = tested on: MOLM-13; assay: Primary HTS, single concentration, Cell Titer Glo; type: cell-based, human; settings: approximately 10 µM, 72 h, relative to positive control
[20] = tested on: MV4-11; assay: Primary HTS, single concentration, Cell Titer Glo; type: cell-based, human; settings: approximately 10 µM, 72 h, relative to positive control
[21] = tested on: U937; assay: Primary HTS, single concentration, Cell Titer Glo; type: cell-based, human; settings: approximately 10 µM, 72 h, relative to positive control
[22] = tested on: CHRF288-11; assay: Secondary dose-response HTS, Cell Titer Glo; type: cell-based, human; settings: secondary HTS, 72 h, average of triplicate; read-out: EC50 CHRF288-11
[23] = tested on: CMK; assay: Secondary dose-response HTS, Cell Titer Glo; type: cell-based, human; settings: secondary HTS, 72 h, average of triplicate; read-out: EC50 CMK
[24] = tested on: CMS; assay: Secondary dose-response HTS, Cell Titer Glo; type: cell-based, human; settings: secondary HTS, 72 h, average of triplicate; read-out: EC50 CMS
[25] = tested on: U937; assay: Secondary dose-response HTS, Cell Titer Glo; type: cell-based, human; settings: secondary HTS, 72 h, average of triplicate; read-out: EC50 U937

Compound: N#CC[C@H](C1CCCC1)n1cc(-c2ncnc3[nH]ccc23)cn1 [Ruxolitinib, ruxolitinib]
IC50 ([1]; read-out: IC50, ruxolitinib + BMP2, CHRF288-11, 72 h, with 100 ng mL−1 BMP2): 103 nM | IC50 ([1]; read-out: IC50, ruxolitinib + EPO, CHRF288-11, 72 h, with 100 ng mL−1 EPO): 142 nM | IC50 ([1]; read-out: IC50, ruxolitinib + TPO, CHRF288-11, 72 h, with 100 ng mL−1 TPO): 480 nM | IC50 ([1]; read-out: IC50, ruxolitinib alone (Fig. 6g), CHRF288-11, 72 h, without cytokine): 119 nM | IC50 ([1]; read-out: IC50 CHRF288-11, 72 h, Cell Titer Glo): 143 nM | IC50 [2]: 64 nM | Median survival [3]: 31 days | Median survival [4]: 43 days | AUC(0-t) ([5]; BoyJ, Female): 16.8 ± 10.8 µM·h | Cmax ([5]; BoyJ, Female): 18.1 ± 10.6 µM | Tmax ([5]; BoyJ, Female): 15 min | half-life ([5]; BoyJ, Female): 122 ± 66 min | AUC(0-t) ([5]; BoyJ, Male): 17.9 ± 6.5 µM·h | Cmax ([5]; BoyJ, Male): 28.6 ± 10.6 µM | Tmax ([5]; BoyJ, Male): 15 min | half-life ([5]; BoyJ, Male): 158 ± 104 min | AUC(0-t) ([5]; NSG, Female): 4.8 ± 0.6 µM·h | Cmax ([5]; NSG, Female): 6.9 ± 1.7 µM | Tmax ([5]; NSG, Female): 15 min | half-life ([5]; NSG, Female): 75.6 ± 28.8 min | AUC(0-t) ([5]; NSG, Male): 4.1 ± 0.6 µM·h | Cmax ([5]; NSG, Male): 5.5 ± 1.7 µM | Tmax ([5]; NSG, Male): 15 min | half-life ([5]; NSG, Male): 79.2 ± 44.4 min | sensitivity of primary murine blasts [6]: sensitive | IC50 [7]: 8.7 nM | IC50 [8]: 6.4 nM | IC50 [9]: 49 nM | IC50 [10]: 142 nM | IC50 [11]: 45 nM | IC50 [12]: 6300 nM | IC50 [13]: > 10000 nM

EC50 [25]: 40 nM
Compound: CC(/C=C/C(=O)NO)=C\[C@@H](C)C(=O)c1ccc(N(C)C)cc1 [Trichostatin A]
CHRF288-11 %inh [14]: 190% | CMK %inh [15]: 137% | CMS %inh [16]: 111% | M07e %inh [17]: 147% | ML-2 %inh [18]: 60% | MOLM-13 %inh [19]: 98% | MV4-11 %inh [20]: 81% | U937 %inh [21]: 83% | EC50 [22]: 40 nM | EC50 [23]: 50 nM | EC50 [24]: 40 nM
